Read-outs that look alike come from different tables or passages of the source.
Legend:
corneal epithelial cells [1] = conditions: cited from earlier work; for effect on healing of the damaged area of the epithelium: addition to the monolayer culture
[2] = test system: SV40 immortalized human corneal epithelial cell strain (HCEC)
Description: (§1) Cells Used: The corneal cell used herein was SV40 immortalized human corneal epithelial cell strain (HCEC) (Araki-Sasaki et al., IOVS, 1995, 36:614-621) and the conjunctival cell used herein was Chang's human conjunctival epithelial cell strain (CCL-20.2) (ATC CCCL-20.2).
(§2) Experiments: The cells were cultivated to a density of 5×10^4 cells/mL in a growth medium containing 10% serum, inoculated in a 96-well multiplate in an amount of 100 μL/well and cultivated at 37° C. overnight. After the cultivation thereof to a confluent of 30 to 50%, the culture medium was dissolved in a fresh culture medium, followed by the addition of stepwise diluted MS and further diclofenac sodium and the subsequent cultivation at 37° C. for 24 hours. After the cultivation, each well was washed, followed by the addition of a fresh culture medium (100 μL/well) and WST-8 (10 μL/well; Cell Counting Kit-8 available from DOJIN Chemical Co., Ltd.), subsequent cultivation for 1.5 hour and the determination of the absorbance at 450-660 nm to thus calculate the viable cell count.
(§3) Method for Evaluating Toxicity: A test group free of any candidate compound was used as a negative control, the absorbance thereof was assumed to be 100% and a dose-correlation curve was prepared, which was expressed as the cell survival rates as a function of the concentration of each test substance.

corneal epithelial cells [3] = conditions: cultivation of the epithelial cells; cited from earlier work
[4] = test system: epithelial cells of lenses; conditions: cited from earlier work
[5] = test system: Chang's human conjunctival epithelial cell strain (CCL-20.2); format: cell-based
Description: as §1, §2, §3

corneal epithelial cells [6] = conditions: cited from earlier work
[7] = added together with diclofenac sodium
[8] = diclofenac sodium 0.25 mM, MS 0 μM, 24 hours
[9] = diclofenac sodium 0.5 mM, MS 0 μM, 24 hours
[10] = MS 0.01 μM + diclofenac sodium 0.25 mM
[11] = MS 0.01 μM + diclofenac sodium 0.5 mM
[12] = MS 0.01 μM, diclofenac sodium 0 mM
[13] = MS 0.1 μM + diclofenac sodium 0.25 mM
[14] = MS 0.1 μM + diclofenac sodium 0.5 mM
[15] = MS 0.1 μM, diclofenac sodium 0 mM
[16] = MS 1 μM + diclofenac sodium 0.25 mM
[17] = MS 1 μM + diclofenac sodium 0.5 mM
[18] = MS 1 μM, diclofenac sodium 0 mM
[19] = MS 10 μM + diclofenac sodium 0.25 mM
[20] = MS 10 μM + diclofenac sodium 0.5 mM
[21] = MS 10 μM, diclofenac sodium 0 mM
[22] = MS 100 μM + diclofenac sodium 0.25 mM
[23] = MS 100 μM + diclofenac sodium 0.5 mM
[24] = MS 100 μM, diclofenac sodium 0 mM

CCCCC(C)(C)[C@H](O)/C=C/[C@H]1[C@H](O)CC(=O)[C@@H]1C/C=C\CCCC(=O)O [16,16-dimethyl prostaglandin E2]
effect on healing of the damaged epithelium (corneal epithelial cells [1]; added alone): does not show any effect on the healing of the damaged corneal epithelium | effect on healing of the damaged epithelium (corneal epithelial cells [1]; [7]): does not show any effect on the healing of the damaged corneal epithelium

O=C(O)Cc1ccccc1Nc1c(Cl)cccc1Cl [Diclofenac Sodium, diclofenac sodium]
effect on growth of the corneal epithelial cells ([2]; 0.25 mM, 0.5 mM or 1 mM, dose-dependent): inhibits the growth of the corneal epithelial cells | cell survival rate (% of negative control) [2, 8]: 56.9 ± 8.7% | cell survival rate (% of negative control) [2, 9]: 48.2 ± 6.7% | cell survival rate (% of negative control) ([2]; diclofenac sodium 1 mM, MS 0 μM, 24 hours): 17.3 ± 5.4% | effect on proliferation of the epithelium (corneal epithelial cells [3]): do not affect the proliferation of the epithelium | effect on proliferation of lens epithelial cells ([4]; 25, 50 and 100 μM added to the culture medium): control of the proliferation of the epithelial cells | effect on healing of the damaged area of the epithelium (corneal epithelial cells [1]): would inhibit the damaged epithelium-healing | cell survival rate (% of negative control) ([5]; diclofenac sodium 0.125 mM, MS 0 μM, 24 hours): 74.0 ± 10.0% | cell survival rate (% of negative control) [5, 8]: 37.8 ± 5.7% | cell survival rate (% of negative control) [5, 9]: 29.3 ± 5.6% | effect on epithelium extension promoted by EGF (corneal epithelial cells [6]; added simultaneously with EGF): inhibit the epithelium extension-promoting effect due to the EGF | effect on extension of the corneal epithelial cells (corneal epithelial cells [6]; agent alone): does not affect the extension of the corneal epithelial cells

EGF: epithelium growth factor (EGF)
effect on healing of the damaged area of the epithelium (corneal epithelial cells [1]): would promote the healing of the wound on the damaged area

CCCCC(C)(O)C/C=C/[C@H]1[C@H](O)CC(=O)[C@@H]1CCCCCCC(=O)OC (mixture of isomers) [Misoprostol]
cell survival rate (% of negative control) [2, 10]: 69.9 ± 8.3% | cell survival rate (% of negative control) [2, 11]: 59.2 ± 10.4% | cell survival rate (% of negative control) ([2]; MS 0.01 μM + diclofenac sodium 1 mM): 21.1 ± 9.9% | cell survival rate (% of negative control) [2, 12]: 87.2 ± 13.2% | cell survival rate (% of negative control) [2, 13]: 72.5 ± 12.6% | cell survival rate (% of negative control) [2, 14]: 61.6 ± 13.6% | cell survival rate (% of negative control) ([2]; MS 0.1 μM + diclofenac sodium 1 mM): 22.2 ± 8.3% | cell survival rate (% of negative control) [2, 15]: 98.9 ± 20.4% | cell survival rate (% of negative control) [2, 16]: 73.1 ± 11.7% | cell survival rate (% of negative control) [2, 17]: 68.8 ± 17.1% | cell survival rate (% of negative control) ([2]; MS 1 μM + diclofenac sodium 1 mM): 22.4 ± 8.0% | cell survival rate (% of negative control) [2, 18]: 99.1 ± 22.3% | cell survival rate (% of negative control) [2, 19]: 69.6 ± 10.5% | cell survival rate (% of negative control) [2, 20]: 68.4 ± 13.4% | cell survival rate (% of negative control) ([2]; MS 10 μM + diclofenac sodium 1 mM): 22.6 ± 9.5% | cell survival rate (% of negative control) [2, 21]: 102.4 ± 24.5% | cell survival rate (% of negative control) [2, 22]: 31.7 ± 8.8% | cell survival rate (% of negative control) [2, 23]: 7.2 ± 4.5% | cell survival rate (% of negative control) ([2]; MS 100 μM + diclofenac sodium 1 mM): −1.3 ± 1.3% | cell survival rate (% of negative control) [2, 24]: 99.2 ± 30.7% | cell survival rate (% of negative control) ([5]; MS 0.01 μM + diclofenac sodium 0.125 mM): 91.1 ± 8.1% | cell survival rate (% of negative control) [5, 10]: 42.6 ± 4.9% | cell survival rate (% of negative control) [5, 11]: 33.1 ± 7.4% | cell survival rate (% of negative control) [5, 12]: 93.0 ± 14.8% | cell survival rate (% of negative control) ([5]; MS 0.1 μM + diclofenac sodium 0.125 mM): 97.1 ± 4.5% | cell survival rate (% of negative control) [5, 13]: 45.0 ± 6.7% | cell survival rate (% of negative control) [5, 14]: 34.2 ± 9.3% | cell survival rate (% of negative control) [5, 15]: 98.6 ± 20.2% | cell survival rate (% of negative control) ([5]; MS 1 μM + diclofenac sodium 0.125 mM): 96.4 ± 8.4% | cell survival rate (% of negative control) [5, 16]: 44.0 ± 6.4% | cell survival rate (% of negative control) [5, 17]: 34.4 ± 12.2% | cell survival rate (% of negative control) [5, 18]: 104.0 ± 26.6% | cell survival rate (% of negative control) ([5]; MS 10 μM + diclofenac sodium 0.125 mM): 97.8 ± 9.6% | cell survival rate (% of negative control) [5, 19]: 46.4 ± 7.3% | cell survival rate (% of negative control) [5, 20]: 33.7 ± 9.4% | cell survival rate (% of negative control) [5, 21]: 99.5 ± 22.2% | cell survival rate (% of negative control) ([5]; MS 100 μM + diclofenac sodium 0.125 mM): 55.4 ± 14.7% | cell survival rate (% of negative control) [5, 22]: 31.5 ± 7.4% | cell survival rate (% of negative control) [5, 23]: 28.7 ± 6.4% | cell survival rate (% of negative control) [5, 24]: 86.3 ± 12.0% | concentration at which MS per se had a cytotoxic effect ([5]; human, 24 h): 100 µM

CC(C)OC(=O)CCC/C=C\C[C@@H]1[C@@H](CC[C@@H](O)CCc2ccccc2)[C@H](O)C[C@@H]1O [latanoprost]
effect on healing of the damaged epithelium (corneal epithelial cells [1]; added alone): any such effect cannot be obtained | effect on healing of the damaged epithelium (corneal epithelial cells [1]; [7]): can recover the healing of the damaged epithelium

CCCCC[C@H](O)/C=C/[C@H]1[C@H](O)CC(=O)[C@@H]1C/C=C\CCCC(=O)O [PGE2, prostaglandin E2]
effect on growth of lens epithelial cells ([4]; 1, 10, 50 and 100 μM added to the culture medium): permits the growth of the epithelial cells
